Values belong to the molecule of their own block, whether it stands above or below them.
Columns and labels:
[1] = Particle size distribution by laser diffraction (D.4); assay type: physicochemical; conditions: after micronization, monohydrate II as starting material, 50 mm spiral jet mill; dry measurement 4 bar
Experimental: All measurements cited in the above tables were obtained by laser diffraction with dry dispersion using compressed air. Measuring in aqueous suspension with surfactants may lead to smaller particle sizes (×90 up to 1 μm smaller).
The particle size analysis data are usually reported as cumulative undersized distribution by volume. The symbol x is used to denote the particle size, which is defined as diameter of a volume equivalent sphere. Most common characteristic values are calculated from the particle size distribution by interpolation. Frequently used are the particle sizes at the undersize values of 10%, 50% and 90% of the volume distribution, denoted as ×10, ×50 and ×90. ×50 is also known as median particle size. The symbol dis widely used to designate the particle size, thus the symbol x may be replaced by the symbol d.

[2] = test system: anesthetized thromboxane A2 challenged PAH-minipig; test: Haemodynamics in the anesthetized thromboxane challenged minipig (PAH minipig), inhaled nebulized solution: lung selectivity and duration of action; assay type: in vivo, Göttingen Minipigs; conditions: inhaled; for PAP % changes vs prevalue: mean
Experimental: Healthy Göttingen Minipigs® Ellegaard (Ellegaard, Denmark) of both sexes and having a weight of 2-6 kg were used. The animals were sedated by i.m. administration of about 25 mg/kg ketamine and about 10 mg/kg azaperone. Anaesthesia was initiated by i.v. administration of about 2 mg/kg ketamine and about 0.3 mg/kg midazolam. Maintenance of anaesthesia was by i.v. administration of about 7.5-30 mg/kg/h ketamine and about 1-4 mg/kg/h midazolam (rate of infusion 1-4 ml/kg/h) and about 150 μg/kg/h pancuronium bromide (for example Pancuronium-Actavis). After intubation, the animals were ventilated by the ventilator at a constant respiratory volume (10-12 ml/kg, 35 breaths/min; Avea®, Viasys Healthcare, USA, or Engström Carestation, GE Healthcare, Freiburg, Germany) such that an end-tidal CO2 concentration of about 5% was achieved. Ventilation was performed with room air, enriched with about 40% oxygen (normoxia). For the measurement of the haemodynamic parameters such as pulmonary arterial pressure (PAP), blood pressure (BP) and heart rate (HR), catheters were inserted into the carotid artery to measure the blood pressure, and a Swan-Ganz® catheter was introduced in a flow-directed manner via the jugular vein into the pulmonary artery. The haemodynamic signals were recorded and evaluated by means of pressure transducers (Combitransducer, B. Braun, Melsungen, Germany)/amplifiers and Ponemah® as data acquisition software.
After the instruments have been placed into the animals, continuous infusion of a thromboxane A2 analog was initiated to increase the pulmonary arterial pressure. About 0.3-0.75 μg/kg/min of 9,11-didesoxy-9α,11α-epoxymethanoprostaglandine F2α (U-44069; Sigma, cat. no. D0400, or Cayman Chemical Company, cat. no. 16440), dissolved in physiological saline, were infused to achieve an increase of the mean pulmonary arterial pressure to values of over 25 mmHg. 30 minutes after the start of the infusion, a plateau was reached, and the experiment was started.
The test substances were administered as i.v. infusion or by inhalation. For the preparation of the solution for inhalation, the following procedure was adopted: For an animal having a weight of 4 kg, to prepare the stock solution (300 μg/kg), 1.2 mg of the test compound were weighed out and dissolved in a total volume of 3 ml (1% DMSO, 99% 0.2% strength citric acid solution, 1 n aqueous sodium hydroxide solution to adjust the pH to 8). The solution was then diluted to the concentration employed using 0.2% strength citric acid which had been adjusted to pH 8 beforehand with aqueous sodium hydroxide solution. In each test, 3 ml of the solution of test compound per 4 kg animal were nebulized in the inhalation arm of the respiratory circuit using the Aeroneb® Pro nebulizer system. The mean nebulization time was about 7 min from the start of the nebulization.
With respect to a prediction of the duration of action for human studies comparative example 11 was compared in the PAH minipig model after inhaled application to Ventavis® (=Iloprost, 10 μg/kg nominal dose), which we used as a clinical reference. […] Therefore, the duration of action is more than 6 times longer compared to Ventavis in this preclinical animal model.

plasma proteins [3] = test: Protein binding via ultrafiltration assay; assay type: in vitro ADME
Source text: For this assay, filter membranes of 30 kDa pore size were used to separate plasma and protein free ultrafiltrate. The driving force for filtration was applied by centrifugation. Prior to protein binding studies, the adsorption (recovery) of the test compound to the ultra-filtration device and the ability of the test compound to pass the filter membrane was checked by filtration of the test compound dissolved in buffer at four concentrations. Sufficient stability of the test compound and an almost complete recovery (≥90% of the actual amount of compound used for the experiment) was a prerequisite for the use of the ultrafiltration method. The amount of organic solvent added to the plasma may not exceed 2% of the total incubation volume. Blood samples were collected in heparinized tubes either pooled (all species except human and monkey) or individually (human and monkey) and were used within 24 h for incubation experiments in blood. Plasma was prepared by centrifugation of the heparinized blood samples. Plasma was stored at −15° C. until use. Plasma stability, Compound recovery, unspecific binding to the membrane and the test device as well as partitioning between blood cells and plasma were controlled. The substance-associated radioactivity was determined by liquid scintillation counting. With this analytical method, it is not possible to distinguish between unchanged substance and radioactive metabolites. For details of the radioanalytical methods and the work up of the samples see Goeller et al. (3). A description of the ultrafiltration method in general was published by Zhang et al. In 2012 (4).

plasma proteins [4] = test: Protein binding via Transil assay, human plasma; assay type: in vitro ADME; conditions: all tested species where comparative results are given
Source text: The distribution of a test substance between Transil® (phosphatidylcholine lipid bilayers immobilized on silica beads) and plasma is a characteristic feature of any pharmaceutical compound and is dependent on its extent of binding to plasma proteins. By comparing the distribution between Transil® and buffer with the distribution between Transil® and plasma of any species of interest, the unbound fraction in the plasma of the respective animal species can be calculated in vitro. The respective plasma and buffer concentrations were determined via a radioactivity analysis. A detailed description of the method and its validation was published by Schuhmacher et al. (2).

[5] = test system: patients with pulmonary hypertension; conditions: clinical studies; cited from earlier work

PSD X10 [1]: X10: 0.2 μm,
PSD X50 [1]: X50: 1.7 μm,
PSD X90 [1]: X90: 4.2 μm
Structure (SMILES): CCOC(=O)c1ccc2c(n1)CCCC2NCCc1ccccc1OCc1ccc(-c2ccc(C(F)(F)F)cc2)cc1Cl (single isomer, unassigned) [Example 8a, Ethyl 5-{[2-(2-{[3-chloro-4′-(trifluoromethyl)biphenyl-4-yl]methoxy}phenyl)ethyl]amino}-5,6,7,8-tetrahydroquinoline-2-carboxylate]

Structure (SMILES): O=C(O)c1ccc(CCN(CCc2cc(F)ccc2OCc2ccc(-c3nc4cc(Cl)ccc4o3)cc2)C2CCCc3nc(C(=O)O)ccc32)cc1 (single isomer, unassigned) [compound 4, 5-{[2-(4-Carboxyphenyl)ethyl][2-(2-{[4-(5-chloro-1,3-benzoxazol-2-yl)benzyl]oxy}-5-fluorophenyl)-ethyl]amino}-5,6,7,8-tetrahydroquinoline-2-carboxylic Acid, reference compound]
duration of action ([2]; minipig model): sufficient duration of action

Fraction unbound (%) (plasma proteins [3]; Dog Beagle plasma): 17.1%
Fraction unbound (%) (plasma proteins [3]; Human (male) plasma): 4.97%
Fraction unbound (%) (plasma proteins [3]; Rat Wistar plasma): 15.7%
Structure (SMILES): COC(=O)N(C)c1c(N)nc(-c2nn(Cc3ccccc3F)c3ncccc23)nc1N [Comparative example 2, Methyl-4,6-diamino-2-[1-(2-fluorobenzyl)-1H-pyrazolo[3,4-b]pyridine-3-yl]-5-pyrimidinyl(methyl)carbamate]

Structure (SMILES): O=C(O)c1ccc(CCN(CCc2ccccc2OCc2ccc(-c3ccc(C(F)(F)F)cc3)cc2Cl)[C@H]2CCCc3nc(C(=O)O)ccc32)cc1 [Example 1, (5S)—{[2-(4-Carboxyphenyl)ethyl][2-(2-{[3-chloro-4′-(trifluoromethyl)biphenyl-4-yl]methoxy}phenyl)-ethyl]amino}-5,6,7,8-tetrahydroquinoline-2-carboxylic Acid Monohydrate II]
free fractions (comparison) (plasma proteins [4]): lowest free fractions

Structure (SMILES): CC#CCC(C)[C@H](O)/C=C/[C@@H]1[C@H]2C/C(=C/CCCC(=O)O)C[C@H]2C[C@H]1O (stereo partly shown) [Ventavis ®]
PAP % changes vs prevalue ([2]; 10 μg/kg nominal dose, time 0 min): 0%
PAP % changes vs prevalue ([2]; 10 μg/kg nominal dose, time 10 min): −30.3%
PAP % changes vs prevalue ([2]; 10 μg/kg nominal dose, time 20 min): −20.7%
PAP % changes vs prevalue ([2]; 10 μg/kg nominal dose, time 30 min): −6.9%
PAP % changes vs prevalue ([2]; 10 μg/kg nominal dose, time 40 min): 1.7%
PAP % changes vs prevalue ([2]; 10 μg/kg nominal dose, time 50 min): 4.9%

Structure (SMILES): CC#CCC(C)[C@H](O)/C=C/[C@@H]1[C@H]2C/C(=C/CCCC(=O)O)C[C@H]2C[C@H]1O (stereo partly shown) [Ventavis, reference compound]
maximal duration of action ([2]; 10 μg/kg nominal dose): about 40 min
duration of action on haemodynamics (PVR) [5]: about 60 min
